According to US9216999B2, “Substituted pyrrolo[2,3-h][1,6]naphthyridines and compositions thereof as JAK inhibitors” (priority 2011, dated 2015):
Like-named read-outs stand apart in the source and are kept apart here.

Assays:
Assay type in all cases: biochemical
[1] = molecular target: Tyk2 (Homo sapiens (Human), UniProt P29597); assay: Enzyme assay (Assay Example^a 1), Tyk2; details: ATP 100 μM; Table^a 154
[2] = molecular target: JAK2 (Homo sapiens (Human), UniProt O60674); assay: Enzyme assay (Assay Example^a 1), JAK2; details: ATP 100 μM; Table^a 154
[3] = molecular target: JAK1 (Homo sapiens (Human), UniProt P23458); assay: Enzyme assay (Assay Example^a 1), JAK1; details: ATP 100 μM; Table^a 154
[4] = molecular target: JAK3 (Homo sapiens (Human), UniProt P52333); assay: Enzyme assay (Assay Example^a 1), JAK3
Chain of JAK3 (P52333 whole entry): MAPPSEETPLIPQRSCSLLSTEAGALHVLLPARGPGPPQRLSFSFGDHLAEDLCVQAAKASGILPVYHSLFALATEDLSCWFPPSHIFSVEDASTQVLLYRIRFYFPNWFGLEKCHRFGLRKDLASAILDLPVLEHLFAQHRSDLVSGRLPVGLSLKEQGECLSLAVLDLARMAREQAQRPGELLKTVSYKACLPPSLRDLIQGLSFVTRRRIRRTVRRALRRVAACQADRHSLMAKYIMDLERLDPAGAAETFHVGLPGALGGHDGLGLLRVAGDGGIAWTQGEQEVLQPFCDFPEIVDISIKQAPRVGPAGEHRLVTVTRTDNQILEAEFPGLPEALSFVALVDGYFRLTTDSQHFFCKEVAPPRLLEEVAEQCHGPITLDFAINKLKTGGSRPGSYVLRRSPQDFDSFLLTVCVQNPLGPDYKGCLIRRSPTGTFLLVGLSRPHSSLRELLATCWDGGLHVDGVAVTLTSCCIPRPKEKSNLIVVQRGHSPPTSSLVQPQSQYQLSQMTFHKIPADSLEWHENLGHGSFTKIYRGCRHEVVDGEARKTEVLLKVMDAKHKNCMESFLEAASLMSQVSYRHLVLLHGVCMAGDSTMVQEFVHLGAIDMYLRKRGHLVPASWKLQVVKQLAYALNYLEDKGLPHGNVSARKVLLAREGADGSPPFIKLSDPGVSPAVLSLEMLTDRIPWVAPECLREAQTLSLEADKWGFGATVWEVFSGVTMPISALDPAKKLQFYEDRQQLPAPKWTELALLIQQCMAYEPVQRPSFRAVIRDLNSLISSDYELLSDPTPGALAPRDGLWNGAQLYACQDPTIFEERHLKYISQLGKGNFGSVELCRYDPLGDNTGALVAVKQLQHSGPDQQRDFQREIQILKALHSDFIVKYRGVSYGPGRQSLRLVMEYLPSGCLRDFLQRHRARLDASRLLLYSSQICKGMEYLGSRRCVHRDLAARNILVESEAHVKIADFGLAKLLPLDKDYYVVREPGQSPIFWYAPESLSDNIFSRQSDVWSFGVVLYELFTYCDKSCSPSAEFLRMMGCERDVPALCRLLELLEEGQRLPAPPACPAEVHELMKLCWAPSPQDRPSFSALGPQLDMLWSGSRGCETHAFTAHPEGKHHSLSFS

Chain of Tyk2 (P29597 whole entry): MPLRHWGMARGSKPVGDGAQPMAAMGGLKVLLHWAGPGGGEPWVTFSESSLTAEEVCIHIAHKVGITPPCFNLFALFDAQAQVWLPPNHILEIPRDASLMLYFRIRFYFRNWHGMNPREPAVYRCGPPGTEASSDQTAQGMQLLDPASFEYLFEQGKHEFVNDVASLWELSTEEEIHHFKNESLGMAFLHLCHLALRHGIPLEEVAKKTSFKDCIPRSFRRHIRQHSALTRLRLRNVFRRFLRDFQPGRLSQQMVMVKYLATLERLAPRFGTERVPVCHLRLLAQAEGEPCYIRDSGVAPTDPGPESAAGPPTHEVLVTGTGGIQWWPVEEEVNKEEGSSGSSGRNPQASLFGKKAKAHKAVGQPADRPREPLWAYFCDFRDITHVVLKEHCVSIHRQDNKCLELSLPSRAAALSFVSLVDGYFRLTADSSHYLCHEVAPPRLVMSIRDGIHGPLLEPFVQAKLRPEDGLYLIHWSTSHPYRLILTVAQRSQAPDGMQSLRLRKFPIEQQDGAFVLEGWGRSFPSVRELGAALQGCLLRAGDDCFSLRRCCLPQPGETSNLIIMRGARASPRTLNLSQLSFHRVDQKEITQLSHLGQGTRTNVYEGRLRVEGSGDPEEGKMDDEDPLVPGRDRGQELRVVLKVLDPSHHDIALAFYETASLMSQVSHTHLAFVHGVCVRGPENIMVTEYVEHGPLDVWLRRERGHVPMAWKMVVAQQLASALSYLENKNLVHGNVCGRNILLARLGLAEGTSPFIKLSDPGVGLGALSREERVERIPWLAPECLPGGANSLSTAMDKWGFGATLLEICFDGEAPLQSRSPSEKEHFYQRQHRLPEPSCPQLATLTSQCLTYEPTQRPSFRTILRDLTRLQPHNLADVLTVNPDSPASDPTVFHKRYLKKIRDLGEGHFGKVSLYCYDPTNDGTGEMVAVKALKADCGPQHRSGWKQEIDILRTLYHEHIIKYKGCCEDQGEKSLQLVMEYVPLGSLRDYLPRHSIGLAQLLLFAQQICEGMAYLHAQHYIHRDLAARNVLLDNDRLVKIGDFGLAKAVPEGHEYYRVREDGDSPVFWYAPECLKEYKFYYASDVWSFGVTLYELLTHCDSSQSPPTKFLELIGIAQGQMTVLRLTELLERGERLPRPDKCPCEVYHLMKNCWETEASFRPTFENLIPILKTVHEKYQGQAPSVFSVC

SMILES	IC50 [1]	IC50 [2]	IC50 [3]	IC50 ([4]; ATP 100 μM, Table^a 154)	IC50 [4]
c1cc2c(ncn3nnc(C4CCC4)c23)[nH]1 [compound 67]	0.41 µM	0.2 µM	0.052 µM	0.65 µM	
N#CC1CCN(C[C@H]2CC[C@H](c3nnn4cnc5[nH]ccc5c34)CC2)CC1 [compound 89]	0.61 µM	0.2 µM	0.025 µM	> 1 µM	
Cc1ccc(CNC[C@H]2CC[C@H](c3nnn4cnc5[nH]ccc5c34)CC2)s1 [compound 106]	0.0036 µM	0.041 µM	0.0019 µM		0.28 µM
FCCNC[C@H]1CC[C@H](c2nnn3cnc4[nH]ccc4c23)CC1 [compound 107]	0.036 µM	0.055 µM	0.0028 µM		0.28 µM
CN(C[C@H]1CC[C@H](c2nnn3cnc4[nH]ccc4c23)CC1)c1ccc(C#N)cc1 [compound 108]	0.58 µM	0.024 µM	0.0039 µM	0.58 µM	
Fc1ccc(CCNC[C@H]2CC[C@H](c3nnn4cnc5[nH]ccc5c34)CC2)cc1 [compound 111]	0.028 µM	0.027 µM	0.0019 µM	0.22 µM	
CS(=O)(=O)c1ccc(CN2CCC(c3nnn4cnc5[nH]ccc5c34)CC2)cc1 [compound 156]	0.65 µM	0.042 µM	0.0032 µM	0.52 µM	
Fc1cc(C(F)(F)F)ccc1CN1CCC(c2nnn3cnc4[nH]ccc4c23)CC1 [compound 157]	0.31 µM	0.02 µM	0.002 µM	0.24 µM	
Fc1cc(Cl)ccc1CN1CCC(c2nnn3cnc4[nH]ccc4c23)CC1 [compound 158]	0.097 µM	0.0044 µM	0.0007 µM	0.059 µM	
Fc1cc(CN2CCC(c3nnn4cnc5[nH]ccc5c34)CC2)ccc1Cl [compound 159]	0.3 µM	0.011 µM	0.0016 µM	0.08 µM	
Clc1cc(CN2CCC(c3nnn4cnc5[nH]ccc5c34)CC2)ccn1 [compound 160]	0.26 µM	0.021 µM	0.0053 µM	0.35 µM	
Fc1cnccc1CN1CCC(c2nnn3cnc4[nH]ccc4c23)CC1 [compound 161, 1-{1-[(3-fluoropyridin-4-yl)methyl]piperidin-4-yl}-7H-pyrrolo[3,2-e][1,2,3]triazolo[1,5-c]pyrimidine]	0.14 µM	0.011 µM	0.0034 µM	0.31 µM	
Fc1ccc(CN2CCC(c3nnn4cnc5[nH]ccc5c34)CC2)nc1 [compound 162, 1-{1-[(5-fluoropyridin-2-yl)methyl]piperidin-4-yl}-7H-pyrrolo[3,2-e][1,2,3]triazolo[1,5-c]pyrimidine]	> 1 µM	0.2 µM	0.032 µM	0.68 µM	
Clc1cnccc1CN1CCC(c2nnn3cnc4[nH]ccc4c23)CC1 [compound 163, 1-{1-[(3-chloropyridin-4-yl)methyl]piperidin-4-yl}-7H-pyrrolo[3,2-e][1,2,3]triazolo[1,5-c]pyrimidine]	0.31 µM	0.034 µM	0.01 µM	0.41 µM	
Fc1ccc(CN2CCC(c3nnn4cnc5[nH]ccc5c34)CC2)c(F)c1 [compound 164, 1-[1-(2,4-difluorobenzyl)piperidin-4-yl]-7H-pyrrolo[3,2-e][1,2,3]triazolo[1,5-c]pyrimidine]	0.29 µM	0.03 µM	0.0058 µM	0.23 µM	
Fc1ccc(CN2CCC(c3nnn4cnc5[nH]ccc5c34)CC2)c(Cl)c1 [compound 165, 1-[1-(2-chloro-4-fluorobenzyl)piperidin-4-yl]-7H-pyrrolo[3,2-e][1,2,3]triazolo[1,5-c]pyrimidine]	0.34 µM	0.02 µM	0.0044 µM	0.1 µM	

SMILES	IC50 [1]	IC50 [2]	IC50 [3]	IC50 ([4]; ATP 100 μM, Table^a 154)	IC50 [4]
Fc1ccc(CN2CCC(c3nnn4cnc5[nH]ccc5c34)CC2)cc1F [compound 166, 1-[1-(3,4-difluorobenzyl)piperidin-4-yl]-7H-pyrrolo[3,2-e][1,2,3]triazolo[1,5-c]pyrimidine]	0.49 µM	0.023 µM	0.0053 µM	0.17 µM	
Fc1cc(CN2CCC(c3nnn4cnc5[nH]ccc5c34)CC2)ccc1C(F)(F)F [compound 167, 1-{1-[3-fluoro-4-(trifluoromethyl)benzyl]piperidin-4-yl}-7H-pyrrolo[3,2-e][1,2,3]triazolo[1,5-c]pyrimidine]	0.98 µM	0.03 µM	0.0031 µM	0.17 µM	
OCCOc1ccc(CN2CCC(c3nnn4cnc5[nH]ccc5c34)CC2)cc1 [compound 168, 2-(4-{[4-(7H-pyrrolo[3,2-e][1,2,3]triazolo[1,5-c]pyrimidin-1-yl)piperidin-1-yl]methyl}phenoxy)ethanol]	> 1 µM	0.71 µM	0.084 µM	> 1 µM	
FC(F)C(F)(F)Oc1ccc(CN2CCC(c3nnn4cnc5[nH]ccc5c34)CC2)cc1 [compound 169, 1-{1-[4-(1,1,2,2-tetrafluoroethoxy)benzyl]piperidin-4-yl}-7H-pyrrolo[3,2-e][1,2,3]triazolo[1,5-c]pyrimidine]	> 1 µM	0.052 µM	0.005 µM	0.58 µM	
CC(C)(C)OC(=O)NCCN1CCC(c2nnn3cnc4[nH]ccc4c23)CC1 [compound 171, tert-butyl {2-[4-(7H-pyrrolo[3,2-e][1,2,3]triazolo[1,5-c]pyrimidin-1-yl)piperidin-1-yl]ethyl}carbamate]	> 1 µM	0.94 µM	0.1 µM	> 1 µM	
O=S(=O)(c1ccc(NC[C@H]2CC[C@H](c3nnn4cnc5[nH]ccc5c34)CC2)cc1)C(F)(F)F [compound 173, N-{[trans-4-(7H-pyrrolo[3,2-e][1,2,3]triazolo[1,5-c]pyrimidin-1-yl)cyclohexyl]methyl}-4-[(trifluoromethyl)sulfonyl]aniline]	0.46 µM	0.26 µM	0.034 µM	> 1 µM	
c1ccc(CCNC[C@H]2CC[C@H](c3nnn4cnc5[nH]ccc5c34)CC2)cc1 [compound 174, N-{[trans-4-(7H-pyrrolo[3,2-e][1,2,3]triazolo[1,5-c]pyrimidin-1-yl)cyclohexyl]methyl}-2-phenylethanamine]	0.099 µM	0.072 µM	0.0057 µM	0.61 µM	
FC(F)(F)c1nc2cc(NC[C@H]3CC[C@H](c4nnn5cnc6[nH]ccc6c45)CC3)ccc2[nH]1 [compound 175, N-{[trans-4-(7H-pyrrolo[3,2-e][1,2,3]triazolo[1,5-c]pyrimidin-1-yl)cyclohexyl]methyl}-2-(trifluoromethyl)-1H-benzo[d]imidazol-5-amine]	0.045 µM	0.0074 µM	0.0056 µM	0.34 µM	
Clc1ccc(NC[C@H]2CC[C@H](c3nnn4cnc5[nH]ccc5c34)CC2)cc1 [compound 176, N-{[trans-4-(7H-pyrrolo[3,2-e][1,2,3]triazolo[1,5-c]pyrimidin-1-yl)cyclohexyl]methyl}-4-chloroaniline]	> 1 µM	0.19 µM	0.034 µM	> 1 µM	
Clc1ccc(CNC[C@H]2CC[C@H](c3nnn4cnc5[nH]ccc5c34)CC2)cc1 [compound 177, 1-[trans-4-(7H-pyrrolo[3,2-e][1,2,3]triazolo[1,5-c]pyrimidin-1-yl)cyclohexyl]-N-(4-chlorobenzyl)methanamine]	0.0028 µM	0.031 µM	0.0029 µM	0.2 µM	
Clc1ccc(CCNC[C@H]2CC[C@H](c3nnn4cnc5[nH]ccc5c34)CC2)cc1 [compound 178, N-{[trans-4-(7H-pyrrolo[3,2-e][1,2,3]triazolo[1,5-c]pyrimidin-1-yl)cyclohexyl]methyl}-2-(4-chlorophenyl)ethanamine]	0.053 µM	0.024 µM	0.0026 µM	0.17 µM	
Fc1ccc2c(c1)CCN2C[C@H]1CC[C@H](c2nnn3cnc4[nH]ccc4c23)CC1 [compound 179, 1-[trans-4-((5-fluoroindolin-1-yl)methyl)cyclohexyl]-7H-pyrrolo[3,2-e][1,2,3]triazolo[1,5-c]pyrimidine]	> 1 µM	0.094 µM	0.028 µM	> 1 µM	
N#CCCN(CCC#N)C[C@H]1CC[C@H](c2nnn3cnc4[nH]ccc4c23)CC1 [compound 180, 3,3′-({[trans-4-(7H-pyrrolo[3,2-e][1,2,3]triazolo[1,5-c]pyrimidin-1-yl)cyclohexyl]methyl}azanediyl)dipropanenitrile]	0.022 µM	0.0019 µM	0.0013 µM	0.03 µM	
CN(C)[C@H]1CCN(C[C@H]2CC[C@H](c3nnn4cnc5[nH]ccc5c34)CC2)C1 [compound 181, (S)-1-{[trans-4-(7H-pyrrolo[3,2-e][1,2,3]triazolo[1,5-c]pyrimidin-1-yl)cyclohexyl]methyl}-N,N-dimethylpyrrolidin-3-amine]	0.49 µM	0.13 µM	0.024 µM	> 1 µM	
Cc1ccc(CNC[C@H]2CC[C@H](c3nnn4cnc5[nH]ccc5c34)CC2)o1 [compound 182, 1-[trans-4-(7H-pyrrolo[3,2-e][1,2,3]triazolo[1,5-c]pyrimidin-1-yl)cyclohexyl]-N-[(5-methylfuran-2-yl)methyl]methanamine]	0.016 µM	0.039 µM	0.0054 µM	0.28 µM	
Cc1cnc(CNC[C@H]2CC[C@H](c3nnn4cnc5[nH]ccc5c34)CC2)cn1 [compound 183, 1-[trans-4-(7H-pyrrolo[3,2-e][1,2,3]triazolo[1,5-c]pyrimidin-1-yl)cyclohexyl]-N-[(5-methylpyrazin-2-yl)methyl]methanamine]	0.041 µM	0.055 µM	0.0061 µM	0.8 µM	
